According to patent US20090318403A1, “ANTIBIOTIC COMPOSITION” (Prosensa Technologies B.V., priority 2006, published 2009):
Where two headings read alike, the source gives them in different places.

Tests used:
Format in all cases: cell-based
[1] = test system: Pseudomonas aeruginosa PA01; assay: Growth inhibition (MIC, OD550 after 20 h) of P. aeruginosa PA01; settings: for MIC: Pseudomonas aeruginosa; for MIC of antibiotic: PA01, inoculum 10^4 bacteria in 20% LB, after 20 h, antibiotic alone (Table 3); for MIC of antibiotic alone: antibiotic alone (Table 1)
[2] = Sensitizer effect of short lipoamines (our studies)
Text: R1 in formula I represents a linear or branched alkyl group comprising at least 7 atoms in a straight chain. In this context alkyl group means that it is a group containing carbon atoms. For instance, for the lipoamines butylamine, pentylamine and hexylamine as disclosed in JP 57155954 no effect was found in our studies. It is understood that if not specified otherwise, C, O, N and S atoms in the alkyl group further comprise hydrogen atoms to properly satisfy the valency of the respective atom. At least 7 atoms in a straight chain is with respect to the longest group of atoms, not including hydrogen, directly connected to one another by covalent bonds starting from the nitrogen (N) in formula I. Such a group of at least 7 atoms in a straight chain thus can be part of cyclic elements, including aromatic rings, in R1, or in other words, one or more (saturated and/or unsaturated) rings can form (part of) the alkyl group comprising at least 7 atoms in a straight chain. The alkyl group may comprise one or more O, N and/or S atoms, which means that the chain of carbon atoms may be interrupted by one or more O, N and/or S atoms. It is preferred the alkyl group comprises an ω-CH3 group, or in other words starting from the nitrogen (N) in formula I the longest alkyl group preferably ends with a CH3.

[3] = test system: P. aeruginosa clinical isolate PA7249; assay: Growth inhibition (MIC) of clinical P. aeruginosa isolate PA7249; settings: Pseudomonas aeruginosa, isolate PA7249, 10^4 bacteria in 20% LB, 20 h
[4] = test system: P. aeruginosa clinical isolate PA7252; assay: Growth inhibition (MIC) of clinical P. aeruginosa isolate PA7252; settings: Pseudomonas aeruginosa, isolate PA7252, 10^4 bacteria in 20% LB, 20 h
[5] = test system: multidrug-resistant Acinetobacter baumannii LUH5771; assay: Growth inhibition of multidrug-resistant A. baumannii LUH5771; settings: for Susceptibility of the isolate to treatment: multi-resistant A. baumannii clinical isolate
[6] = test system: P. aeruginosa clinical isolate PA7247; assay: Growth inhibition (MIC) of clinical P. aeruginosa isolate PA7247; settings: Pseudomonas aeruginosa, isolate PA7247, 10^4 bacteria in 20% LB, 20 h
[7] = test system: P. aeruginosa clinical isolate PA7243; assay: Growth inhibition (MIC) of clinical P. aeruginosa isolate PA7243; settings: Pseudomonas aeruginosa, isolate PA7243, 10^4 bacteria in 20% LB, 20 h
[8] = test system: P. aeruginosa clinical isolate PA7253; assay: Growth inhibition (MIC) of clinical P. aeruginosa isolate PA7253; settings: Pseudomonas aeruginosa, isolate PA7253, 10^4 bacteria in 20% LB, 20 h
[9] = test system: extended β-lactamase (ESBL) producing Klebsiella pneumoniae LUH5344; assay: Growth inhibition (MIC) of ESBL producing K. pneumoniae LUH5344; settings: K. pneumoniae LUH5344, 100% LB
[10] = test system: ceftazidime-resistant P. aeruginosa clinical isolate PA 24-7-3; assay: Growth inhibition (MIC) of ceftazidime-resistant P. aeruginosa PA 24-7-3; settings: Pseudomonas aeruginosa, PA 24-7-3, 20% LB
[11] = PA01, 20% LB, 20 h, sensitizer alone

In the case of `CC(C)c1ccc2c(c1)CC[C@H]1[C@](C)(CN)CCC[C@]21C` [dehydroabietylamine], the “MIC of sensitizer alone” value [1, 11] is reported as “MIC at ≧20 μM”.

With `CC/C(=C(\c1ccccc1)c1ccc(OCCN(C)C)cc1)c1ccccc1` [tamoxifen] the MIC [1, 11] was ≥ 20 µM.

For `CCCCCN` [pentylamine], the “Sensitizer effect” value [2] was “no effect”.

Compound `CCn1cc(C(=O)O)c(=O)c2ccc(C)nc21` [nalidixic acid] has an MIC of antibiotic [1] of 25 µg/mL.

With `CCCCCCCCCCCCCCCCCCN` [stearylamine] the MIC [1, 11] was ≥ 20 µM.

For `CC1(C)S[C@@H]2[C@H](NC(=O)[C@H](N)c3ccccc3)C(=O)N2[C@H]1C(=O)O` [ampicillin], the MIC ([3]; read-out: MIC ampicillin) was > 200 µg/mL, the MIC ([4]; read-out: MIC ampicillin) was > 200 µg/mL and the “Susceptibility of the isolate to treatment” value (“Susceptibility of the isolate” below) [5] was “resistant”. The MIC ([6]; read-out: MIC ampicillin) was > 200 µg/mL, the MIC ([7]; read-out: MIC ampicillin) was > 200 µg/mL and the MIC ([8]; read-out: MIC ampicillin) was > 200 µg/mL. For the same compound, the “MIC of antibiotic alone” value ([1]; PA01, 20% LB, 20 h) was “MIC >200 μg/mL” and the MIC of antibiotic [1] was >200 µg/mL.

In the case of `CCCCCCCC/C=C\CCCCCCCCN` [oleylamine], the MIC ([3]; read-out: MIC oleylamine) is reported as > 40 µM, the MIC ([4]; read-out: MIC oleylamine) is reported as ≥ 40 µM and the oleylamine bactericidal concentration ([5]; A. baumannii LUH5771, oleylamine alone) is reported as “at ≧5 μM”. For the same compound, the “Susceptibility of the isolate” value [5] was “resistant”, the MIC ([9]; read-out: MIC oleylamine) was ≥ 40 µM and the MIC ([6]; read-out: MIC oleylamine) was ≥ 40 µM. The MIC ([7]; read-out: MIC oleylamine) was > 40 µM, the MIC ([10]; read-out: MIC oleylamine) was ≥ 20 µM and the MIC ([8]; read-out: MIC oleylamine) was > 40 µM. The MIC [1, 11] was ≥ 20 µM.

For `CCCCCCN` [hexylamine], the “Sensitizer effect” value [2] was “no effect”.

In the case of `CCCCN` [butylamine], the “Sensitizer effect” value [2] is reported as “no effect”.

With `CC(=O)NC[C@H]1CN(c2ccc(N3CCOCC3)c(F)c2)C(=O)O1` [linezolid] the “MIC of antibiotic alone” value ([1]; PA01, 20% LB, 20 h) was “MIC >200 ug/mL μg/mL”.

Work on `CC(C)(O/N=C(\C(=O)N[C@@H]1C(=O)N2C(C(=O)[O-])=C(C[n+]3ccccc3)CS[C@H]12)c1csc(N)n1)C(=O)O` [ceftazidime] yielded an MIC ([9]; read-out: MIC ceftazidime) of 6.25 µg/mL and an MIC ([10]; read-out: MIC ceftazidime) of 6.25 µg/mL.

In the case of gentamicin, the MIC gentamicin ([5]; A. baumannii LUH5771, gentamicin alone) is reported as >200 µg·mL and the “Susceptibility of the isolate” value [5] is reported as “resistant”.
